Data from patent publication US8071565B2 (Novartis AG, priority 2006, dated 2011).
pKi: −log10 of the molar value. Where a name gives a salt, the structure may show the parent alone.

Molecular target: adenosine A2A receptor (Homo sapiens, UniProt P29274)
Test: adenosine A2A receptor agonist assay (method of Murphree et al, Mol Pharmacol 61, 455-462, 2002)
Format: binding
Details: method of L. J. Murphree et al
Text: Compounds of formula (I) and their pharmaceutically acceptable salts are useful as pharmaceuticals. In particular, they activate the adenosine A2A receptor, i.e., they act as A2A receptor agonists.

adenosine A2A receptor, sequence (P29274 whole entry): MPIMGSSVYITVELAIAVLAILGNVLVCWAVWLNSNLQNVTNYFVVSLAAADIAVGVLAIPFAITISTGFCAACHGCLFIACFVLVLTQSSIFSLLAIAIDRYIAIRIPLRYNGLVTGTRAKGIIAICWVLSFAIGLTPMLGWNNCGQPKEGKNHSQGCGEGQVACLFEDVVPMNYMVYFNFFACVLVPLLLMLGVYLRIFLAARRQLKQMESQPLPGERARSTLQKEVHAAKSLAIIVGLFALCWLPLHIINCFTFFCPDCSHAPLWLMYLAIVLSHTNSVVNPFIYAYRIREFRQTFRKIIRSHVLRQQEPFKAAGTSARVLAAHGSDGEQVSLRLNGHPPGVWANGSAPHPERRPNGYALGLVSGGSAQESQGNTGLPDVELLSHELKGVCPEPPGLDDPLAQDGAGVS

pKi | SMILES
7.05 | C[C@@H]1NC(=O)N([C@H]2C[C@@H](n3cnc4c(NCC(c5ccccc5)c5ccccc5)nc(N5CC[C@@H](NC(=O)Nc6cccnc6)C5)nc43)[C@H](O)[C@@H]2O)C1=O [Example C1]
7.48 | O=C(Nc1cccnc1)N[C@@H]1CCN(c2nc(NCC(c3ccccc3)c3ccccc3)c3ncn([C@@H]4C[C@H](N5C(=O)CNC5=O)[C@@H](O)[C@H]4O)c3n2)C1 [Example C2, 1-{(R)-1-[9-[(1R,2S,3R,4S)-4-(2,5-Dioxo-imidazolidin-1-yl)-2,3-dihydroxy-cyclopentyl]-6-(2,2-diphenyl-ethylamino)-9H-purin-2-yl]-pyrrolidin-3-yl}-3-pyridin-3-yl-urea trifluoroacetate]
